This passage reports IC50 and EC50 results from patent publication US11753395B2 (Kinnate Biopharma Inc., priority 2021, dated 2023).

Where only a bound is given, the exact number is not on record here.

For assay [1], the target named is T1, MET (Homo sapiens, UniProt P08581).
T1 construct: purchased Carna Biosciences 08-151
The assay can be described thus: MET Mobility Shift Assay. The following applies: biochemical assay IC50; 100 μM ATP, 60 minute kinase reaction. The gist of the method:
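IC50s come from inhibition of substrate-to-phosphopeptide conversion, read by electrophoretic mobility shift. Reaction: 100 μM ATP, 1.5 μM 5-FAM peptide, 0.625 nM MET, 10 mM MgCl2, 60 min, after a 30 min room-temperature enzyme pre-incubation, quenched with EDTA.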

The target in assay [2] is T2, MET D1228N (Homo sapiens, UniProt P08581, D1228N).
T2 construct: purchased Signalchem M52-12IG
The assay can be described thus: MET D1228N Mobility Shift Assay. The following applies: biochemical assay IC50; 100 μM ATP, 60 minute kinase reaction. The gist of the method: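 Microfluidic electrophoresis quantified phosphorylated versus unphosphorylated 5-FAM-KKKKEEIYFFF peptide (1.5 μM) after a 60 min reaction with 100 μM ATP. MET D1228N (0.313 nM) in 50 mM HEPES, 10 mM MgCl2, 2 mM DTT was preincubated 30 min; IC50 fitted to conversion inhibition.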

In assay [3] the target is T3, Ba/F3-TPR-MET cells (Homo sapiens, UniProt P08581).
T3 construct: fused on or other part: P12270 (Nucleoprotein TPR)
The assay can be described thus: CellTiter-Glo Cell Viability Assay, Ba/F3-TPR-MET. The following applies: 72 hours. In kind it is cell-based. The method in brief: (§1)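 IC50 values come from curve-fitted luminescence. Viable-cell ATP was read by CellTiter-Glo 2.0 after a 72 h, 37 °C incubation of 3000 TPR-MET or D1228N-mutant Ba/F3 cells per well. Compounds were tested as a 9-point, 3-fold series with 0.1% DMSO final.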
A general note: ATP-based viability assays read luminescence as a measure of living cells.

The target of assay [4] is T4, Ba/F3-TPR-MET-D1228N cells (Homo sapiens, UniProt P08581, D1228N, cells depend on it).
T4 construct: fused on or other part: P12270 (Nucleoprotein TPR)
The experiment in a line: CellTiter-Glo Cell Viability Assay, Ba/F3-TPR-MET-D1228N. The class given is cell-based. The following applies: 72 hours. The method in brief: as §1

For `CNCCOc1cc2nccc(Oc3c(F)cc(NC(=O)c4cnccc4OC4COC4)cc3F)c2cc1OC` [Example 68, N-[3,5-difluoro-4-({6-methoxy-7-[2-(methylamino)ethoxy]quinolin-4-yl}oxy)phenyl]-4-(oxetan-3-yloxy)pyridine-3-carboxamide], the IC50 in assay [1] and in assay [2] was at most 100 nM in each case. The EC50 (commonly the concentration needed to bring the measured effect to its halfway point) was 100 to 1000 nM in assay [3] and at most 100 nM in assay [4].
As for `CNCCCOc1cc2nccc(Oc3c(F)cc(NC(=O)c4cnccc4OC4CCC4)cc3F)c2cc1OC` [Example 85, 4-cyclobutoxy-N-(3,5-difluoro-4-((6-methoxy-7-(3-(methylamino)propoxy)quinolin-4-yl)oxy)phenyl)pyridine-3-carboxamide], the 50% inhibitory concentration (IC50) in assay [1] and in assay [2] was at most 100 nM each time. Further, the EC50 in assay [3] and in assay [4] was 100 to 1000 nM throughout.
Regarding `COc1cc2c(Oc3c(F)cc(NC(=O)c4cnccc4OCC(F)F)cc3F)ccnc2cc1OCCO` [Example 135, N-(3,5-difluoro-4-((7-(2-hydroxyethoxy)-6-methoxyquinolin-4-yl)oxy)phenyl)-4-(2,2-difluoroethoxy)pyridine-3-carboxamide], the IC50 in assay [1] and in assay [2] was at most 100 nM in each case. In addition, the EC50 in assay [3] and in assay [4] was at most 100 nM in each case.
For “(R)-N-(4-((7-(2-aminopropoxy)quinolin-4-yl)oxy)-3,5-difluorophenyl)-4-cyclopropoxypyridine-3-carboxamide [Example 13]”, the IC50 in assay [1] and in assay [2] was at most 100 nM in each case. Further, the EC50 in assay [3] was 100 to 1000 nM; in assay [4], at most 100 nM.
With `CNCCOc1cc2nccc(Oc3c(F)cc(NC(=O)c4cnccc4OC[C@@H](C)O)cc3F)c2cc1OC` [Example 65, (R)-N-(3,5-difluoro-4-((6-methoxy-7-(2-(methylamino)ethoxy)quinolin-4-yl)oxy)phenyl)-4-(2-hydroxypropoxy)pyridine-3-carboxamide], the IC50 in assay [1] and in assay [2] was at most 100 nM in each case. The figures for the EC50 in assay [3] and in assay [4] were 100 to 1000 nM and at most 100 nM, respectively.
Regarding `COc1cc2c(Oc3c(F)cc(NC(=O)c4ccccc4F)cc3F)ccnc2cc1OCCO` [Example 134, N-(3,5-difluoro-4-((7-(2-hydroxyethoxy)-6-methoxyquinolin-4-yl)oxy)phenyl)-2-fluorobenzamide], the IC50 in assay [1] and in assay [2] was at most 100 nM in each case. Further, the EC50 in assay [3] and in assay [4] was at most 100 nM each time.
Regarding `CCOc1ccnc(F)c1C(=O)Nc1cc(F)c(Oc2ccnc3cc(OCCCNC)c(OC)cc23)c(F)c1` [Example 119], the IC50 in assay [1] and in assay [2] was at most 100 nM in each case. Also, the EC50 in assay [3] and in assay [4] was 100 to 1000 nM each time.
In the case of `COc1cc2nccc(Oc3c(F)cc(NC(=O)c4nnccc4OC4CC4)cc3F)c2cc1OC` [Example 149, 4-cyclopropoxy-N-(4-((6,7-dimethoxyquinolin-4-yl)oxy)-3,5-difluorophenyl)pyridazine-3-carboxamide], the IC50 in assay [1] and in assay [2] was at most 100 nM each time. Also, the EC50 was 100 to 1000 nM in assay [3] and at most 100 nM in assay [4].
`CCc1ccncc1C(=O)Nc1cc(F)c(Oc2ccnc3cc(OCCNC)c(OC)cc23)c(F)c1` [Example 49, N-(3,5-difluoro-4-((6-methoxy-7-(2-(methylamino)ethoxy)quinolin-4-yl)oxy)phenyl)-4-ethylpyridine-3-carboxamide]: the IC50 in assay [1] and in assay [2] was at most 100 nM in each case. In addition, the EC50 in assay [3] and in assay [4] was 100 to 1000 nM in each case.
Turning to `COc1cc2c(Oc3c(F)cc(NC(=O)c4cnccc4OC)cc3F)ccnc2cc1OCC(C)(C)O` [Example 39, N-(3,5-difluoro-4-((7-(2-hydroxy-2-methylpropoxy)-6-methoxyquinolin-4-yl)oxy)phenyl)-4-methoxypyridine-3-carboxamide], the half-maximal inhibitory concentration (IC50) in assay [1] and in assay [2] was at most 100 nM each time. In addition, the half-maximal effective concentration (EC50) in assay [3] is 100 to 1000 nM; in assay [4] it was at most 100 nM.
As to `CC(C)(O)COc1ccc2c(Oc3c(F)cc(NC(=O)c4cnccc4OC4CC4)cc3F)ccnc2c1` [Example 104, 4-cyclopropoxy-N-(3,5-difluoro-4-{[7-(2-hydroxy-2-methylpropoxy)quinolin-4-yl]oxy}phenyl)pyridine-3-carboxamide], the IC50 in assay [1] and in assay [2] was at most 100 nM each time. Besides, the EC50 in assay [3] was in the range of 1000 to 10000 nM; in assay [4] it was 100 to 1000 nM.
For `COc1cc2nccc(Oc3c(F)cc(NC(=O)c4ccncc4OC)cc3F)c2cc1O[C@@H](C)CO` [Example 127, (S)-N-(3,5-difluoro-4-((6-((1-hydroxypropan-2-yl)oxy)-7-methoxyquinolin-4-yl)oxy)phenyl)-3-methoxyisonicotinamide], the IC50 in assay [1] and in assay [2] was at most 100 nM in each case. The EC50 in assay [3] and in assay [4] was at most 100 nM throughout.
Regarding `CNCCOc1cc2nccc(Oc3c(F)cc(NC(=O)c4cnccc4OCC(F)F)cc3F)c2cc1OC` [Example 60, N-[3,5-difluoro-4-({6-methoxy-7-[2-(methylamino)ethoxy]quinolin-4-yl}oxy)phenyl]-4-(2,2-difluoroethoxy)pyridine-3-carboxamide], the IC50 in assay [1] and in assay [2] was at most 100 nM each time. Besides, the EC50 in assay [3] and in assay [4] was at most 100 nM throughout.
As for `COc1ccc2c(Oc3c(F)cc(NC(=O)c4cnccc4OC)cc3F)ccnc2c1` [Example 35, N-{3,5-difluoro-4-[(7-methoxyquinolin-4-yl)oxy]phenyl}-4-methoxypyridine-3-carboxamide], the half-inhibitory concentration (IC50) in assay [1] and in assay [2] was at most 100 nM in each case. The EC50 in assay [3] and in assay [4] was 100 to 1000 nM each time.
`CNCCOc1cc2nccc(Oc3ccc(NC(=O)c4c(OC)ccnc4F)c(F)c3F)c2cc1OC` [Example 15, N-(2,3-difluoro-4-((6-methoxy-7-(2-(methylamino)ethoxy)quinolin-4-yl)oxy)phenyl)-2-fluoro-4-methoxypyridine-3-carboxamide]: the IC50 in assay [1] and in assay [2] was at most 100 nM in each case. The EC50 in assay [3] and in assay [4] was 100 to 1000 nM each time.
In the case of `COc1cc2c(Oc3cc(F)c(NC(=O)c4cnccc4OC)cc3F)ccnc2cc1OCCCN1CCOCC1` [Example 27, N-[2,5-difluoro-4-({6-methoxy-7-[3-(morpholin-4-yl)propoxy]quinolin-4-yl}oxy)phenyl]-4-methoxypyridine-3-carboxamide], the IC50 in assay [1] and in assay [2] was at most 100 nM each time. For the same compound, the EC50 in assay [3] and in assay [4] was 100 to 1000 nM in each case.
In the case of `CNCCOc1ccc2c(Oc3c(F)cc(NC(=O)c4ccncc4OC4CC4)cc3F)ccnc2c1` [Example 81, 3-cyclopropoxy-N-(3,5-difluoro-4-((7-(2-(methylamino)ethoxy)quinolin-4-yl)oxy)phenyl)isonicotinamide], the IC50 in assay [1] and in assay [2] was at most 100 nM in each case. The EC50 in assay [3] and in assay [4] was at most 100 nM throughout.
For the compound `CNCCOc1ccc2c(Oc3c(F)cc(NC(=O)c4c(OC)ccnc4F)cc3F)ccnc2c1` [Example 9, N-(3,5-difluoro-4-((7-(2-(methylamino)ethoxy)quinolin-4-yl)oxy)phenyl)-2-fluoro-4-methoxypyridine-3-carboxamide], the IC50 in assay [1] and in assay [2] was at most 100 nM in each case. Moreover, the EC50 is 100 to 1000 nM in assay [3] and at most 100 nM in assay [4].
For the compound `CCOc1ccncc1C(=O)Nc1ccc(Oc2ccnc3cc(OCCCNC)c(OC)cc23)c(F)c1F` [Example 17, N-[2,3-difluoro-4-({6-methoxy-7-[3-(methylamino)propoxy]quinolin-4-yl}oxy)phenyl]-4-ethoxypyridine-3-carboxamide], the IC50 in assay [1] and in assay [2] was at most 100 nM in each case. For the same compound, the EC50 in assay [3] and in assay [4] was at most 100 nM each time.
For the compound `COCCOc1cnc2c(Oc3c(F)cc(NC(=O)c4ccccc4F)cc3F)ccnc2c1` [Example 140, N-(3,5-difluoro-4-((7-(2-methoxyethoxy)-1,5-naphthyridin-4-yl)oxy)phenyl)-2-fluorobenzamide], the IC50 in assay [1] and in assay [2] was at most 100 nM in each case. Moreover, the EC50 in assay [3] and in assay [4] was at most 100 nM each time.
In the case of `COc1cc2c(Oc3c(F)cc(NC(=O)c4c(OC5CC5)ccnc4F)cc3F)ccnc2cc1OCCO` [Example 118], the IC50 in assay [1] and in assay [2] was at most 100 nM throughout. For the same compound, the EC50 in assay [3] and in assay [4] was at most 100 nM in each case.
